Results as given in ChEMBL document CHEMBL1201862, “PubChem BioAssay data set” (2004).
Active and inactive are the calls of the source.

What was measured:
[1] = system: Streptococcus sp. 'group A'; test: growth inhibition of control SK(-) GAS strain, dose response, counter-screen for streptokinase expression inhibitor project, luminescence, kanamycin, BacTiterGlo, confirmation (AID 1900); assay type: functional, organism-based
Streptococcus = test: Group A Streptococcus viability loss, dose response, counter-screen for streptokinase expression inhibitor project, luminescence, BacTiterGlo (AID 1915); assay type: functional, organism-based;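 note: potency for reduction of bacterial viability or growth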
Cytochrome P450 2C19 = Cytochrome P450 2C19 (Homo sapiens, UniProt P33261); test: Cytochrome panel assay with activity outcomes. Panel member name: p450-cyp2c19 Compounds with AC50 equal or less than 10 uM are considered active; assay type: functional
Cytochrome P450 2C19, sequence (P33261 whole entry): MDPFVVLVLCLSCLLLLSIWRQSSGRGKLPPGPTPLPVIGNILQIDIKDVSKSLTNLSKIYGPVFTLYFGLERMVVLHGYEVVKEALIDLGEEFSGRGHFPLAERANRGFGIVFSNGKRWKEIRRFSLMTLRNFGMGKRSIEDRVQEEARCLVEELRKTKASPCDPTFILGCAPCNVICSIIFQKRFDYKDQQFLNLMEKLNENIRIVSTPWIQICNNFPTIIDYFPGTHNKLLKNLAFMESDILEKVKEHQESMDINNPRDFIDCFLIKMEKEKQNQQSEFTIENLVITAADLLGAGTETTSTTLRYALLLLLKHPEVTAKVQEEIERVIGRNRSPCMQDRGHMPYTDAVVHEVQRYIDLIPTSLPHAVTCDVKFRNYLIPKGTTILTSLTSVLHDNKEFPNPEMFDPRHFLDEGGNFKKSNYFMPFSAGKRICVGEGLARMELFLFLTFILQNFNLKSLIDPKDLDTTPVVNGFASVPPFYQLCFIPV

Cytochrome P450 2D6 = Cytochrome P450 2D6 (Homo sapiens, UniProt P10635);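 note: CYP2D6 member of a cytochrome P450 panel assay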
Cytochrome P450 2D6, sequence (P10635 whole entry): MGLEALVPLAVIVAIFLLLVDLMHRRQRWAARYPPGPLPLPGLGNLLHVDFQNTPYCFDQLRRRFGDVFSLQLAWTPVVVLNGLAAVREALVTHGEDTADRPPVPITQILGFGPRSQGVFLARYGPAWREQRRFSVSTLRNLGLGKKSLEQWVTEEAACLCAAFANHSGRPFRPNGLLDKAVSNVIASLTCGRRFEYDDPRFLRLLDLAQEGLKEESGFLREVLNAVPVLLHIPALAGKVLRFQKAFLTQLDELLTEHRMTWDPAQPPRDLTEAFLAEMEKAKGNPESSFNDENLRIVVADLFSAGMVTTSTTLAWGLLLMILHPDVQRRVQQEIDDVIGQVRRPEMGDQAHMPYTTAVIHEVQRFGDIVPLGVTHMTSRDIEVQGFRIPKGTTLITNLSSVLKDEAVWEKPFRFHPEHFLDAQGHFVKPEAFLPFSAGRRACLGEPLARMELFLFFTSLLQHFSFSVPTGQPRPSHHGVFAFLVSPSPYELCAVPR

[2] = growth suppression of PTEN-null colon cells, dose response, cell-based, HCT116 PTEN knockout (AID 1047); assay type: functional;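 note: HCT116 colon tumor cells with PTEN knocked out; cells exposed to compound for 60 hours before readout; potency for loss of cell viability measured by luminescence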
[3] = growth suppression of beta-catenin-knockout colon cells, dose response, cell-based, HCT116, human colon tumor (AID 1045); assay type: functional;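 note: HCT116 colon tumor cells with beta catenin knocked out; cells exposed to compound for 60 hours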
[4] = target: T1, RNA-binding protein pos-1 (Caenorhabditis elegans, UniProt G5EF15); test: inhibitors of POS-1/mex-3 RNA binding, dose response, biochemical, fluorescence polarization (AID 1964);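 note: purified POS-1 fused to maltose binding protein made in E. coli; potency of compounds blocking POS-1 binding to fluorescent RNA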
T1 sequence (G5EF15 whole entry): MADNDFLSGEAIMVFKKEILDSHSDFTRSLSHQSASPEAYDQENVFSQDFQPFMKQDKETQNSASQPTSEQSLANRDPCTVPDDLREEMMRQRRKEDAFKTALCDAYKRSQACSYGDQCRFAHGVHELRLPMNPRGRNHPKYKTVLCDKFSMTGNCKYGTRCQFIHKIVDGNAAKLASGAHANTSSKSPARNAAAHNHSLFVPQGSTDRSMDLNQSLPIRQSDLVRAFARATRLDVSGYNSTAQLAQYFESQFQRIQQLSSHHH

[5] = target: T2, Zinc finger protein mex-5 (Caenorhabditis elegans, UniProt Q9XUB2); test: MEX-5/TCR-2 RNA interaction inhibitors, dose response, biochemical, C. elegans, fluorescence polarization (AID 1960)
T2 sequence (Q9XUB2 whole entry): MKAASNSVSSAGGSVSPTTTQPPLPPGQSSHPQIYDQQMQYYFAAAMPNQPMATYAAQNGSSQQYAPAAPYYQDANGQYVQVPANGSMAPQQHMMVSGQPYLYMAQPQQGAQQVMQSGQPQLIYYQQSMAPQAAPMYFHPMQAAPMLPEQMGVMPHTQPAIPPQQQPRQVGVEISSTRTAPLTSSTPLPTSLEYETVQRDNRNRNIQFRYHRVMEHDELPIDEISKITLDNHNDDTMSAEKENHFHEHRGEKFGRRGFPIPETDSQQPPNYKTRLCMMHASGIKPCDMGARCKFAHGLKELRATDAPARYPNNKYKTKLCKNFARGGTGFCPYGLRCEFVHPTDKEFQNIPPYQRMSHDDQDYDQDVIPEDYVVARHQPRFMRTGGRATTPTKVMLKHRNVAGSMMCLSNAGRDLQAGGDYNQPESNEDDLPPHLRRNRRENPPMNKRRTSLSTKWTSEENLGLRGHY

[6] = target: T3, Heat shock factor protein 1 (Mus musculus, UniProt P38532); test: inhibition of MG132-induced HSE-luciferase signal, confirmation, cell-based, NIH3T3, luminescence, dose retest (AID 2382); assay type: functional;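 note: NIH3T3 fibroblasts with HSF1-driven luciferase reporter stressed by proteasome inhibitor MG132; luminescence from HSF1-driven luciferase expression after 8 hours of MG132 stress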
T3 sequence (P38532 whole entry): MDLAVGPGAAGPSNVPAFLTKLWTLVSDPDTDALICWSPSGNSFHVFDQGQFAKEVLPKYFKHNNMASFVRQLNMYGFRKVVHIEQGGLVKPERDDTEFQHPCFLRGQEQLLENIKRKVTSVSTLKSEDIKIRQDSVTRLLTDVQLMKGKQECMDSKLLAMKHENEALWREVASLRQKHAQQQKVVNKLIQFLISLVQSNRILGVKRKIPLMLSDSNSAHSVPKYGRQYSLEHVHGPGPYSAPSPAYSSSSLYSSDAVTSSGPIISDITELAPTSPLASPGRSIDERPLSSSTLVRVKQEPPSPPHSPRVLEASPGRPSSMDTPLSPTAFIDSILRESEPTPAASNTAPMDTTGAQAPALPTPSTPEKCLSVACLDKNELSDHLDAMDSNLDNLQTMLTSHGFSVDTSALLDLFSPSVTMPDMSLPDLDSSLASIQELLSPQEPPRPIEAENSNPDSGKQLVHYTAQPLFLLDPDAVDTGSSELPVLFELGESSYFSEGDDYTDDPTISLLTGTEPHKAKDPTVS

[7] = inhibitors of intracellular T. cruzi replication, confirmation, NIH3T3 host cells, beta-gal luminescence (AID 2044); assay type: functional, cell-based;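 note: intracellular parasites grown in NIH/3T3 mouse fibroblasts as host cells; luminescent beta-galactosidase reporter signal from transgenic T. cruzi replicating inside host cells; inhibitors lower the luminescence signal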
[8] = cytotoxicity toward NIH3T3 fibroblasts, dose response, counter-screen, cell-based, ATP luminescence, mouse fibroblasts (AID 2010); assay type: functional;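 note: cells exposed to compound for about 90 hours before reading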

## CCCCCCCC(=O)NNC(=O)c1c(O)c2ccccc2n(CC)c1=O
[1]
  EC50: 2.31 µM (active)
Streptococcus
  EC50: 6.17 µM (active)

## C=CCN1C(=O)NC(=O)/C(=C(/CC)NC2CC2)C1=O
Cytochrome P450 2C19; read-out: AC50
  AC50: 22.4 µM (inconclusive)
Cytochrome P450 2D6
  AC50: 1.12 µM (inconclusive)

## CC(=O)Nc1nc(-c2ccccc2)nc(-c2ccccc2OC(C)=O)n1
[2]
  EC50: 73.1 µM (active)
[3]
  EC50: 118 µM (active)

## CCOc1ccc2ccccc2c1C1NC(=O)N(C)C(C)=C1C(=O)OCCOC (configuration not stated)
[4]
  EC50: > 300 µM (not active)
[5]
  EC50: > 300 µM (not active)

## CN(C)CCCn1c2ccccc2c2cnccc21
Cytochrome P450 2D6
  AC50: 3.98 µM (inconclusive)

## CC(C)c1ccc(/C=C/C(=O)Nc2nc3ccc([N+](=O)[O-])cc3s2)cc1
[2]
  EC50: 23.3 µM (active)
[3]
  EC50: 41.3 µM (active)

## CC(C)(C)N1[C@@H](CC(=O)O)c2cc(C(F)(F)F)ccc2S1(=O)=O
[6]
  EC50: > 195 µM (not active)

## Cc1ccc(-c2c[n+](CC(=O)c3ccc(Br)cc3)c3n2CCCCC3)cc1
[7]
  EC50: 0.465 µM (active)
[8]
  EC50: > 60 µM (not active)

## Cc1ccc(C)c(-c2cc(C(=O)NCc3cccs3)c3ccccc3n2)c1
Cytochrome P450 2C19; read-out: AC50
  AC50: 3.55 µM (inconclusive)
Cytochrome P450 2D6
  AC50: 14.1 µM (inconclusive)

## CN(CCCNC(=O)c1ccc(/C=N/O)nc1)CCCN(C)Cc1ccccc1
Cytochrome P450 2C19
  AC50: inconclusive

## CN1CCN(c2ccc(S(=O)(=O)N3CCCCC3)cc2NC(=O)c2ccc(C#N)cc2)CC1
[7]
  EC50: 1.14 µM (active)
[8]
  EC50: > 60 µM (not active)

## COC(=O)N1CCC2(CCN(C(=O)Nc3ccccc3)CC2)CC1
Cytochrome P450 2C19; read-out: AC50
  AC50: 20 µM (inconclusive)

## Cc1cc(N2C(=O)C(O)=C(C(=O)c3ccco3)C2c2ccc(O)cc2)no1 (configuration not stated)
Cytochrome P450 2C19; read-out: AC50
  AC50: 35.5 µM (inconclusive)

## Cc1ncn(-c2ccccc2O)c1C
Cytochrome P450 2D6
  AC50: 3.16 µM (inconclusive)

## O=C(NC1CCCCC1)C(c1ccc(F)cc1)N(C(=O)Cc1ccsc1)c1ccc(F)cc1 (configuration not stated)
[7]
  EC50: > 60 µM (not active)
[8]
  EC50: > 60 µM (not active)

## COCc1cc(C)nc(SCC(=O)Nc2cc(C(F)(F)F)ccc2N2CCOCC2)c1C#N
[7]
  EC50: 0.807 µM (active)
[8]
  EC50: > 60 µM (not active)

## Cc1c(C(=O)O)cccc1-n1c(C)cc(/C=C(/C#N)C(=O)NCc2ccccc2)c1C
[4]
  EC50: > 300 µM (not active)
[5]
  EC50: > 300 µM (not active)

## NS(=O)(=O)c1ccc2c(c1)C1C=CCC1C(C1CC=CCC1)N2 (configuration not stated)
[4]
  EC50: 18.3 µM (active)
[5]
  EC50: 20.7 µM (inconclusive)

## COc1ccc(CNc2cc(-c3cccnc3)ncn2)c(OC)c1
Cytochrome P450 2D6
  AC50: 39.8 µM (inconclusive)

## Cc1ccc(CCNC(=O)CN2C(=O)COc3ccccc32)cc1
[7]
  EC50: 16.4 µM (active)
[8]
  EC50: > 60 µM (not active)

## Ic1cncc(OC[C@@H]2CCN2)c1
Cytochrome P450 2C19; read-out: AC50
  AC50: 15.8 µM (inconclusive)
Cytochrome P450 2D6
  AC50: 39.8 µM (inconclusive)

## Cc1noc(C)c1-c1nc(NCc2cccs2)c2ccccc2n1
Cytochrome P450 2D6
  AC50: 3.98 µM (inconclusive)

## C/C(=N\Nc1nncc2ccccc12)c1ccc(Cl)c([N+](=O)[O-])c1
[6]
  EC50: > 195 µM (not active)

## O=C(/C(=C(\[O-])c1ccccc1)[n+]1ccc2ccccc2c1)c1ccc([N+](=O)[O-])cc1
[6]
  EC50: > 195 µM (not active)

## Cc1nn(-c2ccccn2)c2c1C(c1ccccc1Cl)C1=C(N2)c2ccccc2C1=O (configuration not stated)
[2]
  EC50: 24.7 µM (active)
[3]
  EC50: 24.9 µM (active)

## C(=N\n1cncn1)/c1ccc(N2CCOCC2)cc1
[6]
  EC50: > 195 µM (not active)

## CC1CCN(C(=O)CSc2nc(O)c3cnn(-c4ccc(Cl)cc4)c3n2)CC1
[6]
  EC50: > 195 µM (not active)

## FC(F)(F)COc1nc(N/N=C/c2cccnc2)nc(N2CCCCC2c2ccccn2)n1 (configuration not stated)
[7]
  EC50: 2.37 µM (active)
[8]
  EC50: > 60 µM (not active)

## Cc1ccc(NC(=O)CCN2C(=O)c3ccncc3C2=O)cc1
Cytochrome P450 2C19; read-out: AC50
  AC50: 39.8 µM (inconclusive)

## COc1ccc(CCn2c(=N)c(C(=O)NC3CCCCC3)cc3c(=O)n4ccccc4nc32)cc1
[4]
  EC50: 21.6 µM (active)
[5]
  EC50: 8.45 µM (inconclusive)

## CCCCCCC1CC(C)(C(=O)CNc2nncs2)OC1=O (configuration not stated)
[7]
  EC50: 1.3 µM (active)
[8]
  EC50: 23.8 µM (active)

## O=C(NCc1ccccc1)C1=C[C@@H](c2ccc(C(F)(F)F)cc2)C[C@@H](OCc2ccc(CO)cc2)O1
[7]
  EC50: 0.669 µM (active)
[8]
  EC50: > 60 µM (not active)

## COc1ccc(NC(=O)CN(C)S(=O)(=O)c2ccc3c(c2)CCC(=O)N3)c(OC)c1
[6]
  EC50: > 195 µM (not active)

## Cc1ccc(N2CC(C(=O)Nc3nnc(SCCN4CCOCC4)s3)CC2=O)cc1 (configuration not stated)
[6]
  EC50: > 195 µM (not active)

## COc1cc(NC(=O)c2cccs2)c(C(=O)OCC(=O)c2cc(C)n(-c3ccc(F)cc3)c2C)cc1OC
[6]
  EC50: 4.87 µM (active)

## CC(C)=C1C2CCC1C1C(=O)N(c3ccc(C)c(C)c3)C(=O)C21 (configuration not stated)
[6]
  EC50: > 195 µM (not active)

## COc1cccc(Cn2c(=O)cnc3cnc(Nc4cccc(OC)c4)nc32)c1
Cytochrome P450 2D6
  AC50: 39.8 µM (inconclusive)

## CCC(C)NCCOCCOc1ccc(Br)cc1 (configuration not stated)
[7]
  EC50: 0.106 µM (active)
[8]
  EC50: > 60 µM (not active)

## CC(=O)C1=C(c2ccccc2)NC(=O)NC1c1ccc(O)c(O)c1 (configuration not stated)
[4]
  EC50: > 300 µM (not active)
[5]
  EC50: 43.4 µM (active)

## CCc1ccccc1N1C(=O)/C(=C/c2ccc(N3CCN(C)CC3)o2)C(=O)NC1=S
[4]
  EC50: > 300 µM (inconclusive)

## Cc1cc(C)nc(NN2C(=O)C=CC2=O)n1
[4]
  EC50: > 300 µM (not active)
[5]
  EC50: 40.8 µM (active)

## COc1ccc(CNC(=O)C(=O)c2cn(CC(=O)N3CCOCC3)c3ccccc23)cc1
[6]
  EC50: > 195 µM (not active)

## Oc1cccc2ccc(/C=C/c3ccc(Br)s3)nc12
[1]
  EC50: 2.56 µM (active)
Streptococcus
  EC50: 4.33 µM (active)

## C#CCN1C(=O)C(O)(CC(=O)c2ccc3c(c2)OCCO3)c2ccccc21 (configuration not stated)
[2]
  EC50: 29.7 µM (active)
[3]
  EC50: 29.7 µM (active)

## O=C(/C=C/c1ccco1)NC(=S)NNC(=O)c1ccco1
[4]
  EC50: 98.1 µM (active)
[5]
  EC50: 15.7 µM (active)

## O=C(Nc1ccccc1C(=O)Nc1nnc(C(F)(F)F)s1)c1ccccc1Cl
[1]
  EC50: 1.36 µM (active)
Streptococcus
  EC50: 3.2 µM (active)

## NCCNc1ncnc2ccc(Cl)cc12
Cytochrome P450 2D6
  AC50: 3.16 µM (inconclusive)

## COc1ccc(OC)c(Nc2nc(-c3sc(NC(=O)C(C)(C)C)nc3C)cs2)c1
[6]
  EC50: > 195 µM (not active)

## CN(CCOc1ccccc1)CC(=O)Nc1ccc(Cl)c(S(=O)(=O)N(C)C)c1
[7]
  EC50: 0.503 µM (active)
[8]
  EC50: > 60 µM (not active)

## CCOC(=O)C1=NNC2(c3ccc(Cl)cc3)C(=O)N(c3cc(C)cc(C)c3)C(=O)C12 (configuration not stated)
Cytochrome P450 2C19; read-out: AC50
  AC50: 2.51 µM (inconclusive)

## Cc1ccc(-n2c(N)c(C(=O)Nc3c(C)n(C)n(-c4ccccc4)c3=O)c3nc4ccccc4nc32)cc1C
[2]
  EC50: 8.61 µM (active)
[3]
  EC50: 11.5 µM (active)

## CCCCCCn1c(N)c(C(=O)NCCN2CCOCC2)c2nc3ccccc3nc21
[2]
  EC50: 17.7 µM (active)
[3]
  EC50: 19.7 µM (active)

## Fc1ccc(SCCc2ccncc2)cc1
[7]
  EC50: 1.27 µM (active)
[8]
  EC50: > 30 µM (not active)

## COc1ccc(Cl)cc1C(=O)C1CCCN(Cc2cnc(N3CCOCC3)s2)C1 (configuration not stated)
[7]
  EC50: 0.135 µM (active)
[8]
  EC50: > 60 µM (not active)

## COc1ccc(CNc2ccc3c(c2)CCC3)cc1OC
[7]
  EC50: 15.4 µM (active)
[8]
  EC50: > 30 µM (not active)
